Test systems include ACHN renal; COLO 205 colon; DU-145 prostate; EKVX NSCLC; HT29 colon; MALME-3M melanoma; MDA-N; NCI-H226 lung; NCI-H23 lung; NCI/ADR-RES ovarian; SF-268 CNS; SF-295 CNS; SF-539 CNS; SK-MEL-5 melanoma; SN12C renal; U251 CNS; UACC-257 melanoma; UACC-62 melanoma; UO-31 renal; SK-MEL-28 melanoma.
Holding throughout (assay): NCI anticancer screen, dose series, 48 h

Each structure is given as a SMILES string.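 Assay format: 96-well plates, 48-hour exposure. The concentration for full growth arrest is given as TGI.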

With `CC(=O)C1(C)CC(C#N)(C#N)C(C#N)=C1N` (stereo not drawn), the TGI in the assay on ACHN renal is above 100 µM; in the assay with COLO 205 colon, above 100 µM; in the assay with DU-145 prostate, above 100 µM; in the assay with EKVX NSCLC it was 85.2 µM; with HT29 colon, above 100 µM; in the assay on MALME-3M melanoma, above 100 µM. Besides, the TGI in the assay with MDA-N, with NCI-H226 lung, with NCI-H23 lung, in the assay with NCI/ADR-RES ovarian, with SF-268 CNS and in the assay on SF-295 CNS was above 100 µM throughout. Moreover, the TGI with SF-539 CNS, with SK-MEL-5 melanoma, in the assay on SN12C renal, in the assay on U251 CNS, in the assay with UACC-257 melanoma and in the assay with UACC-62 melanoma was above 100 µM throughout. The molecule also showed a TGI in the assay on UO-31 renal above 100 µM.

Regarding `O=[N+]([O-])c1ccc(C2=NOC(c3ccc(Cl)cc3)N2C23CC4CC(CC(C4)C2)C3)cc1` (stereo not drawn), the TGI with ACHN renal, with COLO 205 colon, with DU-145 prostate, in the assay with EKVX NSCLC, in the assay with HT29 colon and in the assay with MALME-3M melanoma was above 100 µM in each case. Moreover, the TGI with MDA-N, in the assay with NCI-H226 lung, in the assay with NCI-H23 lung, in the assay with NCI/ADR-RES ovarian, in the assay with SF-268 CNS and in the assay on SF-295 CNS was above 100 µM in each case. In addition, the TGI with SF-539 CNS, in the assay on SK-MEL-28 melanoma, in the assay with SK-MEL-5 melanoma, in the assay on SN12C renal, in the assay on U251 CNS and with UACC-257 melanoma was above 100 µM throughout. Moreover, the TGI in the assay on UACC-62 melanoma and in the assay with UO-31 renal was above 100 µM each time.

As for `O=C1NC(=S)NC(=O)C1=Cc1ccc(-c2ccccc2)cc1`, the TGI in the assay on ACHN renal, in the assay with COLO 205 colon, in the assay with DU-145 prostate, in the assay on EKVX NSCLC, in the assay with HT29 colon and in the assay with MALME-3M melanoma was above 100 µM in each case. Also, the TGI in the assay on MDA-N, with NCI-H226 lung, with NCI-H23 lung, with NCI/ADR-RES ovarian, in the assay with SF-268 CNS and in the assay with SF-295 CNS was above 100 µM each time. Besides, the TGI in the assay on SF-539 CNS, in the assay with SK-MEL-5 melanoma, in the assay on SN12C renal, with U251 CNS, in the assay on UACC-257 melanoma and in the assay with UACC-62 melanoma was above 100 µM in each case. This molecule also had a TGI with UO-31 renal above 100 µM.

Consider `N/C(=N\N=C\c1cc(I)cc(I)c1O)NO`, for which the TGI in the assay on ACHN renal is 74.1 µM; with COLO 205 colon, above 100 µM; in the assay with DU-145 prostate, above 100 µM; in the assay with EKVX NSCLC it was above 100 µM; in the assay on HT29 colon it was above 100 µM; with MALME-3M melanoma, 56.7 µM. The TGI is above 100 µM with MDA-N; 44.5 µM with NCI-H226 lung; 79.3 µM in the assay with NCI-H23 lung; 8.41 µM with NCI/ADR-RES ovarian; above 100 µM in the assay on SF-268 CNS; above 100 µM with SF-295 CNS. In addition, the TGI was 75.6 µM in the assay with SF-539 CNS; above 100 µM with SK-MEL-28 melanoma; above 100 µM with SK-MEL-5 melanoma; above 100 µM with SN12C renal; above 100 µM with U251 CNS; above 100 µM in the assay on UACC-257 melanoma. In the assay with UACC-62 melanoma, this molecule displayed a TGI of 95.5 µM.

`NS(=O)(=O)c1nnc(NC(=O)c2cccc([N+](=O)[O-])c2)s1`: the TGI with ACHN renal, in the assay on COLO 205 colon, in the assay with DU-145 prostate, in the assay on EKVX NSCLC, in the assay with MALME-3M melanoma and in the assay on MDA-N was above 100 µM throughout. The TGI in the assay with NCI-H226 lung, in the assay with NCI-H23 lung, with NCI/ADR-RES ovarian, in the assay on SF-268 CNS, in the assay on SF-295 CNS and with SF-539 CNS was above 100 µM each time. Further, the TGI in the assay on SK-MEL-28 melanoma, with SK-MEL-5 melanoma, in the assay with SN12C renal, with U251 CNS, in the assay on UACC-257 melanoma and in the assay on UACC-62 melanoma was above 100 µM each time. The TGI in the assay on UO-31 renal is above 100 µM.

With `CCO/C(O)=C(/C(=N)N1CCCC1)C(=O)Nc1cccc(Cl)c1`, the TGI in the assay on ACHN renal, in the assay on COLO 205 colon, in the assay with DU-145 prostate, in the assay with EKVX NSCLC, in the assay with HT29 colon and in the assay with MALME-3M melanoma was above 100 µM each time. In addition, the TGI in the assay with MDA-N, in the assay on NCI-H226 lung, in the assay with NCI-H23 lung, with NCI/ADR-RES ovarian, in the assay on SF-268 CNS and in the assay on SF-295 CNS was above 100 µM throughout. The TGI in the assay on SF-539 CNS, with SK-MEL-28 melanoma, in the assay on SN12C renal, with U251 CNS, in the assay with UACC-257 melanoma and with UACC-62 melanoma was above 100 µM each time.

Turning to `CC(C)CCC[C@@H](C)C1CCC2[C@@H]3CCC4C[C@@H](NS(C)(=O)=O)CC[C@]4(C)C3CC[C@@]21C` (stereo partly drawn), the TGI in the assay with COLO 205 colon, in the assay on DU-145 prostate, in the assay on EKVX NSCLC, in the assay with HT29 colon, in the assay with MALME-3M melanoma and with MDA-N was above 100 µM each time. The TGI in the assay on NCI-H226 lung, with NCI-H23 lung, in the assay on NCI/ADR-RES ovarian, in the assay with SF-268 CNS, in the assay with SF-295 CNS and with SF-539 CNS was above 100 µM in each case. Besides, the TGI with SK-MEL-28 melanoma, with SK-MEL-5 melanoma, with SN12C renal, with U251 CNS, with UACC-257 melanoma and with UACC-62 melanoma was above 100 µM throughout. The TGI in the assay on UO-31 renal was above 100 µM.

(Values after PubChem BioAssay (NCI).)
